Molecules are shown by their SMILES. Values after ≈ are worked out from the molar mass of the structure shown. Where a name gives a salt, the structure may show the parent alone.

Data set [1] can be described thus: Thermodynamic aqueous solubility by HPLC. The class given is physicochemical. The note with it: salt from Protocol 4.
Data set [2] can be described thus: Salt stability and hygroscopicity evaluation. The data set is classed as physicochemical. The settings on record: for stability of the salt: salt from Protocol 4, XRPD analysis; for hygroscopicity of the salt: salt from Protocol 4.
Data set [3] has as its system MMP13 levels in human chondrosarcoma cell line SW1353. Nature of the data set: cells. The note with it: SW1353, 48 h, read-out: OSM/IL-1β signaling EC50.
Procedure: The cells are seeded in 96 well plates at 15,000 cells/well in a volume of 120 μL DMEM (Invitrogen) containing 10% (v/v) FBS and 1% penicillin/streptomycin (InVitrogen) incubated at 37° C./5% CO2. Cells are preincubated with 15 μL of compound in M199 medium with 2% DMSO 1 hr before triggering with 15 μL OSM and IL-1P to reach 25 ng/mL OSM and 1 ng/mL IL-1β, and MMP13 levels are measured in conditioned medium 48 h after triggering. MMP13 activity is measured using an antibody capture activity assay. For this purpose, 384 well plates (NUNC, 460518, MaxiSorb black) are coated with 35 μL of a 1.5 μg/mL anti-human MMP13 antibody (R&D Systems, MAB511) solution for 24 hrs at 4° C. After washing the wells 2 times with PBS+0.05% Tween, the remaining binding sites are blocked with 100 μL 5% non-fat dry milk (Santa Cruz, sc-2325, Blotto) in PBS for 24 hr at 4° C. […] After incubation for 24 hrs at 37° C. fluorescence of the converted substrate is measured in a Perkin Elmer Wallac EnVision 2102 Multilabel Reader (wavelength excitation: 320 nm, wavelength emission: 405 nm). Percentage inhibition=((fluorescence determined in the presence of vehicle−fluorescence determined for sample with test compound present) divided by (fluorescence determined in the presence of vehicle−fluorescence determined for sample without trigger))*100.
Data set [4] can be described thus: Solubility study in different solvents. The class given is physicochemical. As for the experimental part: The supersaturated solution is then filtered and the concentration of product in the filtrate is determined using UV-spectrometry.
In water, the influence of the pH is adjusted to pH 2, pH 7, and pH 9. HCl and NaOH are used to adjust the pH.

The nature of data set [5]: Dog bioavailability study. The data set is classed as in vivo, beagle dogs. As for the experimental part: The dogs are not fasted before dosing, and have free access to water. Every day of the treatment, a half food ration is provided after the T0 blood sampling, 8 to 17 min before treatment, and the second half ration is given just after dosing or 1 h after treatment for period 2. A 3 days washout period is ensured between treatments.
The capsule composition is described in Table XX below.
The capsules are administered orally with water (5-10 mL), to provide good oesophageal transit. Each animal is checked at least once daily.
Blood is collected from the jugular vein into lithium heparinised tubes at T0 (before food administration) and then at 1 h, 2 h, 4 h, 6 h, 8 h, 10 h, and 24 h post treatment.
Plasma is then obtained from blood by centrifugation (2500 g for 10 min at 4° C.), and stored at −20° C. until analysis.
After vortex mixing and centrifugation at 4° C., the supernatants are diluted with a 0.5 volume of HPLC grade water in a midi-eppendorf 96-well plate. The plate is sealed and shaken to ensure sample homogeneity prior to analysis.
Pharmacokinetic analysis is performed using WinNonlin™ software version 5.3, using concentrations from individual animals. Non-compartmental analysis is applied to determine the PK parameters (Cmax, Tmax, AUC0-last, t1/2, etc. . . . )
Concentrations below the limit of detection are set to zero for descriptive statistics and PK parameter calculations.

Where [6] appears, read: oral capsules, on average and at the 2 capsule strengths, FIG. 10.

For the molecule `O=C(Nc1nc2cccc(-c3ccc(CN4CCS(=O)(=O)CC4)cc3)n2n1)C1CC1.O=C(O)/C=C\C(=O)O` [Compound 1 maleic acid salt], the solubility (in general, the concentration that dissolves in the medium under given conditions) in data set [1] (water) worked out at 0.4 mg/mL. For the same molecule, the “stability of the salt” value in data set [2] was “stable”.

As for `O=C(O)/C=C\C(=O)O` [Compound 1 maleic acid salt], the “hygroscopicity of the salt” value in data set [2] is recorded as “non-hygroscopic”.

Turning to `O=C(Nc1nc2cccc(-c3ccc(CN4CCS(=O)(=O)CC4)cc3)n2n1)C1CC1` [Compound 1, cyclopropanecarboxylic acid {5-[4-(1,1-dioxo-thiomorpholin-4-ylmethyl)-phenyl]-[1,2,4]triazolo[1,5-a]pyridin-2-yl}-amide], the EC50 in data set [3] turned out to be 2.24 µM. In addition, the solubility in data set [4] (0.01M HCl + 2.0% Tweet 80 (so in the source); presumably Tween 80), pH 2, aqueous with cosolvent or surfactant or cyclodextrin, thermodynamic from solid, 0.01M HCl + 2.0% Tweet 80, 20° C., read-out: Solubility) was found to be 0.313 mg/mL; in data set [4] (aqueous with cosolvent or surfactant or cyclodextrin, thermodynamic from solid, Acetonitrile/water (1/1), 20° C., read-out: Solubility), 1.57 mg/mL (≈ 3690 µM); in data set [4] (aqueous with cosolvent or surfactant or cyclodextrin, thermodynamic from solid, HP-β-CD 40% pH 2, 20° C., read-out: Solubility), 0.577 mg/mL (≈ 1360 µM); in data set [4] (aqueous with cosolvent or surfactant or cyclodextrin, thermodynamic from solid, HP-β-CD 40% pH 4, 20° C., read-out: Solubility), 0.52 mg/mL (≈ 1220 µM); in data set [4] (aqueous with cosolvent or surfactant or cyclodextrin, thermodynamic from solid, Water/ethanol 1/1, 20° C., read-out: Solubility) it was 0.327 mg/mL (≈ 768 µM); in data set [4] (organic solvent or mixture, thermodynamic from solid, Acetone, 20° C., read-out: Solubility), 0.42 mg/mL (≈ 987 µM). The solubility in data set [4] (organic solvent or mixture, thermodynamic from solid, Acetonitrile, 20° C., read-out: Solubility) was 0.605 mg/mL (≈ 1420 µM); in data set [4] (organic solvent or mixture, thermodynamic from solid, Acetonitrile/water (4/1), 20° C., read-out: Solubility), 3.11 mg/mL (≈ 7310 µM); in data set [4] (organic solvent or mixture, thermodynamic from solid, Dichloromethane, 20° C., read-out: Solubility), 5.66 mg/mL (≈ 13300 µM); in data set [4] (organic solvent or mixture, thermodynamic from solid, Ethanol, 20° C., read-out: Solubility), 0.151 mg/mL (≈ 355 µM); in data set [4] (organic solvent or mixture, thermodynamic from solid, Methanol, 20° C., read-out: Solubility) it was 0.432 mg/mL (≈ 1020 µM); in data set [4] (organic solvent or mixture, thermodynamic from solid, PEG400, 20° C., read-out: Solubility) it was 1.53 mg/mL (≈ 3600 µM). Further, the solubility is 0.134 mg/mL (≈ 315 µM) in data set [4] (organic solvent or mixture, thermodynamic from solid, Propanol, 20° C., read-out: Solubility); 0.464 mg/mL (≈ 1090 µM) in data set [4] (organic solvent or mixture, thermodynamic from solid, Propylene glycol, 20° C., read-out: Solubility); 0.74 mg/mL (≈ 1740 µM) in data set [4] (organic solvent or mixture, thermodynamic from solid, Tetrahydrofuran, 20° C., read-out: Solubility); less than 0.00239 mg/mL in data set [4] (organic solvent or mixture, thermodynamic from solid, t-butyl methyl ether, 20° C., read-out: Solubility); 0.288 mg/mL (≈ 677 µM) in data set [4] (pH 2, simulated gastric fluid, thermodynamic from solid, 0.01M HCl, 20° C., read-out: Solubility); 0.291 mg/mL (≈ 684 µM) in data set [4] (pH adjusted with HCl/NaOH, aqueous buffer, thermodynamic from solid, Water pH 2, 20° C., read-out: Solubility). Moreover, the solubility came out at 0.00432 mg/mL (≈ 10.2 µM) in data set [4] (pH adjusted with HCl/NaOH, aqueous buffer, thermodynamic from solid, Water pH 7, 20° C., read-out: Solubility); 0.00429 mg/mL (≈ 10.1 µM) in data set [4] (pH adjusted with HCl/NaOH, aqueous buffer, thermodynamic from solid, Water pH 9, 20° C., read-out: Solubility); 0.00384 mg/mL (≈ 9.02 µM) in data set [4] (thermodynamic from solid, Water (purified), 20° C., read-out: Solubility). In addition, the half-life (as a rule, how long it takes for the measured level to halve) in data set [5] (male, beagle, plasma, 10 mg/kg, single oral administration, range over both forms and both capsule strengths) lay within 4.43 to 8.96 h.

In the case of `Cl.O.O.O.O=C(Nc1nc2cccc(-c3ccc(CN4CCS(=O)(=O)CC4)cc3)n2n1)C1CC1` [Compound 1.HCl.3H2O], the solubility in data set [4] (0.005M HCl, 20° C.) is 3.10 mg/mL. Also, in data set [5] (setting [6]), the “in vivo exposure compared with Compound 1” value is listed as “improved exposure” and the “rate of absorption compared with Compound 1” value is “more rapidly absorbed”.

Regarding `Cl.O=C(Nc1nc2cccc(-c3ccc(CN4CCS(=O)(=O)CC4)cc3)n2n1)C1CC1` [Compound 1 HCl salt], in data set [1], the aqueous solubility – broadly, the concentration that dissolves in the medium under given conditions – is given as 1.9 mg/mL. Moreover, in data set [2], the “hygroscopicity of the salt” value is “non-hygroscopic” and the “stability of the salt” value is given as “stable”.

These data come from US10708263B2, “Salts and pharmaceutical compositions thereof for the treatment of inflammatory disorders” (Galapagos N.V., priority 2014, dated 2020).
